From patent US20200055839A1 (priority 2017, published 2020)

These molecules were tested on NL-RLuc virus (assay: Inhibition of HIV replication (NL-RLuc virus, luciferase readout in MT-2 cells)). Settings: Human immunodeficiency virus 1, MT2, 120 h, MT-2 cells infected with NL-RLuc virus, 5 days of incubation, 10% FBS, at least 2 experiments.
Format: cell-based
Outline: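 EC50 derived via median effect equation from at least 2 experiments, using luciferase expression as virus-growth readout. Replication-competent NL-RLuc reporter virus (nef partly replaced by Renilla luciferase) infected MT-2 cells with serial compound dilutions; 5-day incubation in RPMI 1640 plus 10% FBS.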
Molecule `Cc1nc(N)c(-c2ccc(OCCc3ccc(F)cc3)c(F)c2)c(N2CCC(C)(C)CC2)c1[C@H](OC(C)(C)C)C(=O)O` [Example 73, (S)-2-(6-Amino-4-(4,4-dimethylpiperidin-1-yl)-5-(3-fluoro-4-(4-fluorophenethoxy)phenyl)-2-methylpyridin-3-yl)-2-(tert-butoxy)acetic acid] has an EC50 of 1 nM. In the case of `COc1c(F)cc(-c2c(CN3CCC3)nc(C)c([C@H](OC(C)(C)C)C(=O)O)c2N2CCC(C)(C)CC2)cc1F` [Example 196, (2S)-2-{6-[(Azetidin-1-yl)methyl]-5-(3,5-difluoro-4-methoxyphenyl)-4-(4,4-dimethylpiperidin-1-yl)-2-methylpyridin-3-yl}-2-(tert-butoxy)acetic acid], the EC50 is reported as 19 nM. `Cc1ncc(-c2ccc(OCCc3cccc(F)c3)cn2)c(N2CCC(C)(C)CC2)c1[C@H](OC(C)(C)C)C(=O)O` [Example 304, (2S)-2-(tert-butoxy)-2-[4′-(4,4-dimethylpiperidin-1-yl)-5-[2-(3-fluorophenyl)ethoxy]-6′-methyl-[2,3′-bipyridine]-5′-yl]acetic acid] gave an EC50 of 0.5 nM. Work on `CCCCOc1ccc(-c2cnc(CC)c([C@H](OC(C)(C)C)C(=O)O)c2N2CCC(C)(C)CC2)nc1` [Example 279, (S)-2-(tert-Butoxy)-2-(5-butoxy-4′-(4,4-dimethylpiperidin-1-yl)-6′-ethyl-[2, 3′-bipyridin]-5′-yl)acetic acid] yielded an EC50 of 6 nM. `Cc1ncc(-c2cccc(Cl)c2)c(N2CCC(C)(C)CC2)c1[C@H](OC(C)(C)C)C(=O)O` [Example 143, (2S)-2-(tert-Butoxy)-2-[5-(3-chlorophenyl)-4-(4,4-dimethylpiperidin-1-yl)-2-methylpyridin-3-yl]acetic acid] showed an EC50 of 4 nM. With `Cc1cc(CCOc2ncc(-c3cnc(C)c([C@H](OC(C)(C)C)C(=O)O)c3N3CCC(C)(C)CC3)cc2F)ccc1F` [Example 397, (2S)-2-(tert-butoxy)-2-[4-(4,4-dimethylpiperidin-1-yl)-5′-fluoro-6′-[2-(4-fluoro-3-methylphenyl)ethoxy]-6-methyl-[3,3′-bipyridine]-5-yl]acetic acid] the EC50 was 2 nM. `CCc1ncc(-c2ccc(OCC(C)C)cn2)c(N2CCC(C)(C)CC2)c1[C@H](OC(C)(C)C)C(=O)O` [Example 277, (S)-2-(tert-Butoxy)-2-(4′-(4,4-dimethylpiperidin-1-yl)-6′-ethyl-5-isobutoxy-[2, 3′-bipyridin]-5′-yl)acetic acid] gave an EC50 of 6 nM. Work on `Cc1nc(Nc2cc(F)ccn2)c(-c2ccc(OCCc3ccc(F)cc3)cc2)c(N2CCC(C)(C)CC2)c1[C@H](OC(C)(C)C)C(=O)O` [Example 81, (S)-2-(tert-Butoxy)-2-(4-(4,4-dimethylpiperidin-1-yl)-5-(4-(4-fluorophenethoxy)phenyl)-6-((4-fluoropyridin-2-yl)amino)-2-methylpyridin-3-yl)acetic acid] yielded an EC50 of 11 nM. `Cc1cccc(Cl)c1CCOc1ccc(-c2cnc(C)c([C@H](OC(C)(C)C)C(=O)O)c2N2CCC(C)(C)CC2)cn1` [Example 412, (S)-2-(tert-Butoxy)-2-(6′-(2-chloro-6-methylphenethoxy)-4-(4,4-dimethylpiperidin-1-yl)-6-methyl-[3, 3′-bipyridin]-5-yl)acetic acid] gave an EC50 of 4 nM. For `Cc1ncc(-c2cc(F)ccc2F)c(N2CCC(C)(C)CC2)c1[C@H](OC(C)(C)C)C(=O)O` [Example 130, (2S)-2-(tert-Butoxy)-2-[5-(2,5-difluorophenyl)-4-(4,4-dimethylpiperidin-1-yl)-2-methylpyridin-3-yl]acetic acid], the EC50 was 13 nM. Molecule `Cc1ncc(-c2ccncc2)c(N2CCC(C)(C)CC2)c1[C@H](OC(C)(C)C)C(=O)O` [Example 141, (2S)-2-(tert-Butoxy)-2-[4-(4,4-dimethylpiperidin-1-yl)-6-methyl-[3, 4′-bipyridine]-5-yl]acetic acid] has an EC50 of 8 nM. For `Cc1ncc(-c2ccc(OCCc3cccc(F)c3)nc2)c(N2CCC(C)(C)CC2)c1[C@H](OC(C)(C)C)C(=O)O` [Example 255, (S)-2-(tert-Butoxy)-2-(4-(4,4-dimethylpiperidin-1-yl)-6′-(3-fluorophenethoxy)-6-methyl-[3,3′-bipyridin]-5-yl)acetic acid], the EC50 was 0.8 nM. With `Cc1nc(OCC(C)C)c(Cl)cc1-c1cnc(C)c([C@H](OC(C)(C)C)C(=O)O)c1N1CCC(C)(C)CC1` [Example 425, (S)-2-(tert-Butoxy)-2-(5′-chloro-4-(4,4-dimethylpiperidin-1-yl)-6′-isobutoxy-2′,6-dimethyl-[3, 3′-bipyridin]-5-yl)acetic acid] the EC50 was 126 nM. Work on `Cc1ncc(-c2ccc(C(F)(F)F)c(F)c2F)c(N2CCC(C)(C)CC2)c1[C@H](OC(C)(C)C)C(=O)O` [Example 172, (2S)-2-(tert-Butoxy)-2-{5-[2,3-difluoro-4-(trifluoromethyl)phenyl]-4-(4,4-dimethylpiperidin-1-yl)-2-methylpyridin-3-yl}acetic acid] yielded an EC50 of 14 nM. Molecule `COc1ccccc1CCOc1ncc(-c2cnc(C)c([C@H](OC(C)(C)C)C(=O)O)c2N2CCC(C)(C)CC2)cc1F` [Example 382, (2S)-2-(tert-butoxy)-2-[4-(4,4-dimethylpiperidin-1-yl)-5′-fluoro-6′-[2-(2-methoxyphenyl)ethoxy]-6-methyl-[3,3′-bipyridine]-5-yl]acetic acid] has an EC50 of 5 nM. With `Cc1ncc(-c2ccc(OCCCc3ccccc3)cn2)c(N2CCC(C)(C)CC2)c1[C@H](OC(C)(C)C)C(=O)O` [Example 321, (2S)-2-(tert-butoxy)-2-[4′-(4,4-dimethylpiperidin-1-yl)-6′-methyl-5-(3-phenylpropoxy)-[2,3′-bipyridine]-5′-yl]acetic acid] the EC50 was 0.5 nM. With `Cc1ncc(-c2ccc(OC(C)CC(C)C)nc2)c(N2CCC(C)(C)CC2)c1[C@H](OC(C)(C)C)C(=O)O` (stereo partly drawn) [Example 439, (2S)-2-tert-Butoxy-2-(4-(4,4-dimethylpiperidin-1-yl)-6-methyl-6′-(4-methylpentan-2-yloxy)-3, 3′-bipyridin-5-yl)acetic acid] the EC50 was 15 nM. `Cc1ncc(-c2cnc(OCCCC(C)C)c(F)c2)c(N2CCC(C)(C)CC2)c1[C@H](OC(C)(C)C)C(=O)O` [Example 394, (2S)-2-(tert-butoxy)-2-[4-(4,4-dimethylpiperidin-1-yl)-5′-fluoro-6-methyl-6′-[(4-methylpentyl)oxy]-[3,3′-bipyridine]-5-yl]acetic acid] showed an EC50 of 3 nM. `Cc1nc(Nc2cccnc2F)c(-c2ccc(OCCc3ccc(F)cc3)cc2)c(N2CCC(C)(C)CC2)c1[C@H](OC(C)(C)C)C(=O)O` [Example 90, (S)-2-(tert-Butoxy)-2-(4-(4,4-dimethylpiperidin-1-yl)-5-(4-(4-fluorophenethoxy)phenyl)-6-((2-fluoropyridin-3-yl)amino)-2-methylpyridin-3-yl)acetic acid] was tested, and the EC50 was 5 nM. For `COc1cccc(-c2cnc(C)c([C@H](OC(C)(C)C)C(=O)O)c2N2CCC(C)(C)CC2)c1Cl` [Example 161, (2S)-2-(tert-Butoxy)-2-[5-(2-chloro-3-methoxyphenyl)-4-(4,4-dimethylpiperidin-1-yl)-2-methylpyridin-3-yl]acetic acid], the EC50 was 9 nM. `Cc1ncc(-c2ccc(OCc3ccccc3F)cn2)c(N2CCC(C)(C)CC2)c1[C@H](OC(C)(C)C)C(=O)O` [Example 348, (2S)-2-(tert-butoxy)-2-[4′-(4,4-dimethylpiperidin-1-yl)-5-[(2-fluorophenyl)methoxy]-6′-methyl-[2,3′-bipyridine]-5′-yl]acetic acid] gave an EC50 of 0.6 nM. `Cc1ncc(-c2ccc(OCCc3ccccc3F)cc2)c(N2CCC(C)(C)CC2)c1[C@H](OC(C)(C)C)C(=O)O` [Example 259, (S)-2-(tert-Butoxy)-2-(4-(4,4-dimethylpiperidin-1-yl)-5-(4-(2-fluorophenethoxy)phenyl)-2-methylpyridin-3-yl)acetic acid] was tested, and the EC50 was 1 nM. In the case of `Cc1cccc(CCOc2ncc(-c3cnc(C)c([C@H](OC(C)(C)C)C(=O)O)c3N3CCC(C)(C)CC3)cc2F)c1` [Example 372, (2S)-2-(tert-butoxy)-2-[4-(4,4-dimethylpiperidin-1-yl)-5′-fluoro-6-methyl-6′-[2-(3-methylphenyl)ethoxy]-[3,3′-bipyridine]-5-yl]acetic acid], the EC50 is reported as 1 nM. For `Cc1cccc(-c2cnc(C)c([C@H](OC(C)(C)C)C(=O)O)c2N2CCC(C)(C)CC2)c1` [Example 177, (2S)-2-(tert-Butoxy)-2-[4-(4,4-dimethylpiperidin-1-yl)-2-methyl-5-(3-methylphenyl)pyridin-3-yl]acetic acid], the EC50 was 12 nM. `Cc1ccncc1Nc1nc(C)c([C@H](OC(C)(C)C)C(=O)O)c(N2CCC(C)(C)CC2)c1-c1ccc(OCCc2ccc(F)cc2)cc1` [Example 86, (S)-2-(tert-Butoxy)-2-(4-(4,4-dimethylpiperidin-1-yl)-5-(4-(4-fluorophenethoxy)phenyl)-2-methyl-6-((4-methylpyridin-3-yl)amino)pyridin-3-yl)acetic acid] showed an EC50 of 3 nM.
